Experimental data: patent US10945685B2, “System and method for normalizing standardized uptake values in brain positron emission tomography (PET) images” (New York University, priority 2018, dated 2021)

What was measured:
tau [1] = assay: AD-NL classification from tau PET: ROC AUC and AD-NL ratio of PBP; format: in vivo, human; settings: for AD-NL ratio R = (average PBP of AD group)/(average PBP of NL group), SUVP / AD-NL ratio R = (average PBP of AD group)/(average PBP of NL group), SUVR: Table 5, region not stated; for AD-NL ratio (R), SUVP PBP / AD-NL ratio (R), SUVR PBP: temporal lobe
Procedure: In another embodiment, the average PBP of a particular diseased (or abnormal) group (e.g., an AD group) for a particular ROI may be compared to the PBP of a group of normal control (NL) subjects. For example, a ratio (R) of PBP may be obtained by: R=(average PBP of diseased or abnormal group)/(average PBP of NL group)
(§1) Standardized uptake value (SUV) images were obtained by normalizing tissue radioactivity concentration by injected dose and bodyweight. Estimates of tau deposition were determined for THK53151 with the 40-60 min SUV and for AV1451 with for the 80-100 min SUV. Standard SUVR was generated by using cerebellar cortex as reference. To control the variation of SUVR measures in THK5351 and AV1451 PET caused by the off-target binding in reference region, each subject's SUV images were first transferred into standardized SUVP images, using the Peak-alignment method (as described above). In order to compare the regional SUV distribution patterns on group level, the whole brain probability density function (PDFwb) of SUVP were computed for each subject by normalizing the histograms of a subject's SUVP with the total number of intracranial voxels of that subject. Finally, the group average whole brain probability density function (PDFwb) were computed by averaging the individual subjects' PDFwb within 4 compare groups (2 tracers×2 conditions). One important advantage of SUVP over SUVR is that the Peak-alignment method standardized the range of whole brain SUV (marked in FIG. 2) into [−3,3] approximately, regardless of tracer or disease condition, thus allowing universal cutoff for different tracers, while SUVR cutoffs are tracer-dependent (e.g. 1.5 for THK and 1.19 for AV1451). Here, 1.5 is used for SUVP cutoff, representing 1.5 times std from whole brain mode. The positive binding percentage: PBP=(number of positive bring voxels)/(total number of voxels), are computed for both SUVP and SUVR in different brain tissues.
To compare the classification accuracy of AD and NL using mean SUVR and PBP (SUVR and SUVP), the ROC curve was computed and the area under curve (AUC) was computed.
We also computed the diagnostic accuracy in terms of AUC, as specified in Method section. […] The AD-NL ratio obtained using (average PBP of AD group)/(average PBP of NL group).

tau [2] = assay: Tau PET tracer binding, SUVR with cerebellar cortex as reference, AD patients and NL subjects; format: in vivo, human; settings: mean (SD); for GMSUVR (Cerebral GM tracer retention) / WMSUVR (Cerebral WM tracer retention): all subjects of the tracer (AD and NL)
Procedure: Subjects come from two sources. 18 subjects (9 AD patients, and 9 healthy elderly study participants) underwent ^18F-THK5351 PET scans from the memory clinic of Tohoku University Hospital. ^18F-AV-1451 scans were obtained from the ADNI (Alzheimer's Disease Neuroimaging Initiative) database (adni.loni.usc.edu). 32 Subjects (20 NL and 12 AD) with ^18F-AV-1451 were selected from ADNI, that were matched to the age and MMSE in participants of the THK5351 group.
PET imaging was performed using an Eminence STARGATE PET scanner (Shimadzu, Kyoto, Japan). After intravenous injection of ^18F-THK5351 (185 MBq), dynamic PET images were obtained for 60 min. acquisition matrix is 128×128×79 and voxels size is 2×2×2.6 mm. ^18F-THK5351 was synthesized. MRI was performed on all participants. T1 weighted MR images were obtained using a SIGNA 1.5-Tesla machine (General Electric, Milwaukee, Wis.). In T1-weighted MRI, a 3D volumetric acquisition of a T1-weighted gradient echo sequence produced a gapless series of thin axial sections by using a vascular TOF SPGR sequence (echo time/repetition time, 2.4/50 ms; flip angle, 45°; acquisition matrix, 256×256; 1 excitation; field of view, 22 cm; slice thickness, 2.0 mm).
AV-1451 data were downloaded from ADNI with series description “AV1451 Coreg, Avg, Std Img and Vox Siz, Uniform Resolution”. An intravenous injection of 10 mCi ^18F-AV-1451 (370 MBq) is followed by a saline flush. At approximately 75 minutes following injection, a continuous 30-minute brain scan (6 frames of 5-minute duration) was performed after a CT or transmission scan for attenuation correction. PET imaging was performed using GEMINI TF TOF 16 (Philips Medical Systems), with 6 frames; acquisition matrix 128×128×90; pixel spacing 2×2 mm; slice thickness 2 mm.
Using Free-Surfer (V. 5.1, http://surfer.nmr.mgh.harvard.edu) ROI's were determined for the cerebral gray and white matter, the cerebellar hemisphere gray matter, caudate nuclear, thalamus, ponds and subcortical regions (including frontal, parietal, occipital, medial temporal cortex and lateral temporal lobe). MRI T1 images were coregistered to the mean PET images for each participant by using statistical parametric-mapping software (SPM12; Wellcome Department of Imaging Neuroscience, UCL, London, UK).
as §1, with “tissues. […]” for “tissues.”

| SMILES | AD-NL ratio R = (average PBP of AD group)/(average PBP of NL group), SUVP (tau [1]) | AD-NL ratio R = (average PBP of AD group)/(average PBP of NL group), SUVR (tau [1]) | AD-NL ratio (R), SUVP PBP (tau [1]) | AD-NL ratio (R), SUVR PBP (tau [1]) | SUVR, Basal ganglia (tau [2]; AD patients) | SUVR, Cerebral GM (tau [2]; AD patients) | SUVR, Cerebral WM (tau [2]; AD patients) | SUVR, Frontal cortex (tau [2]; AD patients) | SUVR, Occipital cortex (tau [2]; AD patients) | SUVR, Parietal cortex (tau [2]; AD patients) | SUVR, Temporal cortex (tau [2]; AD patients) | SUVR, Basal ganglia (tau [2]; NL subjects) | SUVR, Cerebral GM (tau [2]; NL subjects) | SUVR, Cerebral WM (tau [2]; NL subjects) | SUVR, Frontal cortex (tau [2]; NL subjects) | SUVR, Occipital cortex (tau [2]; NL subjects) | SUVR, Parietal cortex (tau [2]; NL subjects) | SUVR, Temporal cortex (tau [2]; NL subjects) | GMSUVR (Cerebral GM tracer retention) (tau [2]) | WMSUVR (Cerebral WM tracer retention) (tau [2]) |
| --- | --- | --- | --- | --- | --- | --- | --- | --- | --- | --- | --- | --- | --- | --- | --- | --- | --- | --- | --- | --- |
| [18F]c1ccc(-c2ccc3c(c2)[nH]c2ccncc23)cn1 [AV-1451] | 4.4004 | 1.3258 | 3.69 | 1.3 | 1.30(.10) | 1.24(.25)^+ | 1.27(.18) | 1.18(.23) | 1.17(.13) | 1.25(.30) | 1.41(.35)*^+ | 1.30(.09) | 1.09(.09) | 1.18(.09) | 1.06(.07) | 1.09(.09) | 1.07(.10) | 1.18(.16) | 1.15(0.18) | 1.21(0.13) |
| CNc1ccc(-c2ccc3cc(OC[C@H](O)CF)ccc3n2)cn1 [THK5351] | 3.1248 | 1.2747 | 2.39 | 1.25 | 2.62(.26)^ | 1.55(.16)^+ | 1.78(.14)^+ | 1.38(.18) | 1.42(.16)^+ | 1.46(.12) | 1.88(.22)*^+ | 2.64(.31) | 1.39(.20) | 1.56(.20) | 1.32(.20) | 1.22(.13) | 1.30(.24) | 1.57(.21) | 1.47(0.19) | 1.67(0.20) |
